We go through 39 molecules from ChEMBL document CHEMBL3352046, “Serendipitous discovery of 2-((phenylsulfonyl)methyl)-thieno[3,2-d]pyrimidine derivatives as novel HIV-1 replication inhibitors” (Bioorg Med Chem Lett, 2014).

In data set [1] the test system is Human immunodeficiency virus 1. The data set is described as follows: Antiviral activity against HIV-1 LAI infected in human CEMx174-LTR-GFP CG8 cells assessed as inhibition of viral replication after 5 days. The conditions noted are these: Human immunodeficiency virus 1, LAI, 120 h. In kind it is functional, organism-based.
The nature of data set [2]: Cytotoxicity against human CEmx174 cells expressing GFP after 5 days by resazurin assay. The data set is classed as cell-based.
The target in another data set is Cytochrome P450 2D6 (Homo sapiens, UniProt P10635). The data set is described as follows: Inhibition of recombinant CYP2D6 (unknown origin) after 20 mins by LC-MS/MS analysis. The data set is classed as ADME.
The target in another data set is T1, Cytochrome P450 1A2 (Homo sapiens, UniProt P05177).
T1 sequence (P05177 whole entry): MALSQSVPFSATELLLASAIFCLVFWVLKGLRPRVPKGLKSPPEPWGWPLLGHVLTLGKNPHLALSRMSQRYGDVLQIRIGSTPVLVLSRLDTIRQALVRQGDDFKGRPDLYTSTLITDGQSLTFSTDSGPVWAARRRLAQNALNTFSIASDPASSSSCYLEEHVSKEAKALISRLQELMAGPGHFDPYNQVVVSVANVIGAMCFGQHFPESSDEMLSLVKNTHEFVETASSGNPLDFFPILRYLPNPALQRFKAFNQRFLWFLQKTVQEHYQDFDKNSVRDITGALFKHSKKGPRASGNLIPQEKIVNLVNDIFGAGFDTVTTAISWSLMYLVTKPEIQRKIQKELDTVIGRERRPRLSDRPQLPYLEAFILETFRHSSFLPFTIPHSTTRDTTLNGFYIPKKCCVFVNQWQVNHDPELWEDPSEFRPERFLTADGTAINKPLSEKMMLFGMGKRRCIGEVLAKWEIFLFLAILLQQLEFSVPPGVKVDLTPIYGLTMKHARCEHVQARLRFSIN
The data set is described as follows: Inhibition of recombinant CYP1A2 (unknown origin) after 10 mins by LC-MS/MS analysis. The data set is classed as ADME.

The target of a further data set is Cytochrome P450 2C9 (Homo sapiens, UniProt P11712). Put plainly: Inhibition of recombinant CYP2C9 (unknown origin) after 10 mins by LC-MS/MS analysis. In kind it is ADME.
A short description of data set [3]: Therapeutic index, ratio of CC50 for human CEmx174 cells expressing GFP to IC50 for HIV-1 LAI infected in human CEMx174-LTR-GFP CG8 cells. The conditions noted are these: read-out: Ratio CC50/EC50.
The next data set deals with Cytochrome P450 3A4 (Homo sapiens, UniProt P08684). Put plainly: Inhibition of recombinant CYP3A4 (unknown origin) after 3 mins by LC-MS/MS analysis. In kind it is ADME.
Chain of Cytochrome P450 3A4 (P08684 whole entry): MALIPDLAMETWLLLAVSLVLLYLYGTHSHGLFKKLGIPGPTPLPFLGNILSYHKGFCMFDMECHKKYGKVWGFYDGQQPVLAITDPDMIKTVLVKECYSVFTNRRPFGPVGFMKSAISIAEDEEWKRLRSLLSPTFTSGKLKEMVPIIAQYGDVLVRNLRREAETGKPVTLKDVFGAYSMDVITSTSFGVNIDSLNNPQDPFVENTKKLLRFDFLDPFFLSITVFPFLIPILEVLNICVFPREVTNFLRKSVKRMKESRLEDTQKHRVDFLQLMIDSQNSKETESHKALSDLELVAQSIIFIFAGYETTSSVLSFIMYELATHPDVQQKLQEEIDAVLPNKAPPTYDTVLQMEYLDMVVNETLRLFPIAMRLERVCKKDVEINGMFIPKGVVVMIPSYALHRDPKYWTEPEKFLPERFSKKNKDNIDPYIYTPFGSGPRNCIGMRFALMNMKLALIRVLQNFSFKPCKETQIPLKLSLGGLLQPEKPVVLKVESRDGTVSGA

Chain of Cytochrome P450 2D6 (P10635 whole entry): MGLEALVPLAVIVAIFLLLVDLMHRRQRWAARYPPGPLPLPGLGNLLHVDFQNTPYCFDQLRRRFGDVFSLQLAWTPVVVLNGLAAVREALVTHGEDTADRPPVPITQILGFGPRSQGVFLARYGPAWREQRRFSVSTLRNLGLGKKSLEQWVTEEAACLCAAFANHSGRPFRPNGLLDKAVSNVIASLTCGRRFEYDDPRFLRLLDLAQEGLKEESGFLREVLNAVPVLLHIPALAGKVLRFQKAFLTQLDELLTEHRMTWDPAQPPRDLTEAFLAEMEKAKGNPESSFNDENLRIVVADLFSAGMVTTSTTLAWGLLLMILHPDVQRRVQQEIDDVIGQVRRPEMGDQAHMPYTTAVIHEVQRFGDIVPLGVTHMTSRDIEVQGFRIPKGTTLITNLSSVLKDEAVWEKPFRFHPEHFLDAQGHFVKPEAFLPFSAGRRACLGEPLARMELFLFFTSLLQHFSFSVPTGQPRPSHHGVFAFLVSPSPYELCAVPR
Chain of Cytochrome P450 2C9 (P11712 whole entry): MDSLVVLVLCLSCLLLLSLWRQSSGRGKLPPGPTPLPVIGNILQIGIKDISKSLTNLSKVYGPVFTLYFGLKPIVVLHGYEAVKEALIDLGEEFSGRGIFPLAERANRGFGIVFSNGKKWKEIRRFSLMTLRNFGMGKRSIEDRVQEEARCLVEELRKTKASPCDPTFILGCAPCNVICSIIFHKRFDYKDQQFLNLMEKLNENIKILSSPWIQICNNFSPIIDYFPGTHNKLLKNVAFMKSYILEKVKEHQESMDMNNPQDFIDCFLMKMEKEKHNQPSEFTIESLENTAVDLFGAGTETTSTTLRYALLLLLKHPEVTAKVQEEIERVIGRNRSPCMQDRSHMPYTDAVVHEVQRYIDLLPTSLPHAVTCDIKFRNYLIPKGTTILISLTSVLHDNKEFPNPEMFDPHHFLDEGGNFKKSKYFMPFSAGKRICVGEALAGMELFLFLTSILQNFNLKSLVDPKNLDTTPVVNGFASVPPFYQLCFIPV

Regarding `CCC1=C(C(=O)OCC2CCCCC2)C(c2cccc(O)c2)NC(=O)N1` (stereo not drawn), the EC50 in data set [1] came out at 0.53 µM. In addition, in data set [2], the CC50 at 120 h is > 10 µM.
For `c1ccc(-c2cc(CNc3nncc(-c4cccc5ccccc45)n3)n[nH]2)cc1`, in that order: 0.27 µM and > 10 µM.
With `COc1ccc(-c2nc(CS(=O)(=O)c3cccc(Cl)c3)nc3ccsc23)cn1`, the IC50 is > 10 µM on Cytochrome P450 2D6, > 10 µM on Cytochrome P450 1A2, 5.25 µM at Cytochrome P450 2C9 and 6.71 µM at Cytochrome P450 3A4. The selectivity ratio in data set [3] was > 400. In addition, the EC50 in data set [1] is 0.025 µM. Moreover, the CC50 at 120 h in data set [2] is > 10 µM.
For the molecule `O=S(=O)(Cc1nc(-c2cccnc2)c2sccc2n1)c1cccc(Cl)c1`, the selectivity ratio in data set [3] is > 103. For the same molecule, the EC50 in data set [1] came to 0.485 µM. In addition, in data set [2], the CC50 at 120 h is > 50 µM.
For `O=S(=O)(Cc1nc(-c2ccncc2)c2sccc2n1)c1cccc(Cl)c1`, in that order: > 264, 0.189 µM and > 50 µM.
The matching figures for `O=S(=O)(Cc1nc(-c2ccnc(Cl)c2)c2sccc2n1)c1cccc(Cl)c1`: 233, 0.27 µM and 63 µM.
For `O=S(=O)(Cc1nc(-c2ccc(Cl)nc2)c2sccc2n1)c1cccc(Cl)c1`, in that order: 21, 3.2 µM and 70 µM.
As to `O=S(=O)(Cc1nc(-c2ccc(F)nc2)c2sccc2n1)c1cccc(Cl)c1`, the selectivity ratio in data set [3] amounted to 6.6. In addition, the EC50 in data set [1] came to 6 µM. Besides, it took 40 µM to reach half-maximal cytotoxicity in data set [2] (CC50 at 120 h).
On to `O=c1ccc(-c2nc(CS(=O)(=O)c3cccc(Cl)c3)nc3ccsc23)c[nH]1`, for which, in data set [3], the selectivity ratio was > 54. In addition, in data set [1], the EC50 turned out to be 0.915 µM. In data set [2], the CC50 at 120 h is > 50 µM.
For `COc1ccc(-c2nc(CS(=O)(=O)c3cccc(Cl)c3)nc3ccsc23)cc1`, in that order: 669, 0.103 µM and 69 µM.
For `O=S(=O)(Cc1nc(-c2cccs2)c2sccc2n1)c1cccc(Cl)c1`, in that order: > 357, 0.14 µM and > 50 µM.
The matching figures for `O=S(=O)(Cc1nc(-c2ccoc2)c2sccc2n1)c1cccc(Cl)c1`: > 64, 0.775 µM and > 50 µM.
With `O=S(=O)(Cc1nc(N2CCOCC2)c2sccc2n1)c1cccc(Cl)c1`, in data set [3], the selectivity ratio is > 84. Moreover, the EC50 in data set [1] is 0.59 µM. Moreover, in data set [2], the CC50 at 120 h was > 50 µM.
For `COc1ccc(Nc2nc(CS(=O)(=O)c3cccc(Cl)c3)nc3ccsc23)cc1`, in that order: 18.8, 3.2 µM and 60 µM.
For `COc1ccc(Oc2nc(CS(=O)(=O)c3cccc(Cl)c3)nc3ccsc23)cc1`, in that order: > 60, 0.831 µM and > 50 µM.
For the molecule `COc1ccc(-c2nc(S(=O)(=O)c3cccc(Cl)c3)nc3ccsc23)cn1`, the selectivity ratio in data set [3] was > 155. Besides, in data set [1], the EC50 worked out at 0.322 µM. The CC50 at 120 h in data set [2] was > 50 µM.
Take `COc1ccc(-c2nc(CCS(=O)(=O)c3cccc(Cl)c3)nc3ccsc23)cn1`: the selectivity ratio in data set [3] is > 9.2. In addition, in data set [1], the 50% effective concentration (EC50) stood at 5.4 µM. In data set [2], the CC50 at 120 h is > 50 µM.
For `COc1ccc(-c2nc(C[S+]([O-])c3cccc(Cl)c3)nc3ccsc23)cn1` (stereo not drawn), in that order: > 93, 0.532 µM and > 50 µM.
For `COc1ccc(-c2nc(CSc3cccc(Cl)c3)nc3ccsc23)cn1`, in that order: > 714, 0.014 µM and > 10 µM.
The matching figures for `COc1ccc(-c2nc(/C=C\c3cccc(Cl)c3)nc3ccsc23)cn1`: 6.6, 8 µM and 53 µM.
As to `COc1ccc(-c2nc(CCc3cccc(Cl)c3)nc3ccsc23)cn1`, the selectivity ratio in data set [3] is > 31. For the same molecule, the concentration for a half-maximal effect (EC50) in data set [1] is 1.6 µM. Besides, the CC50 at 120 h in data set [2] is > 50 µM.
For `COc1ccc(-c2nc(CC(=O)c3cccc(Cl)c3)nc3ccsc23)cn1`, in that order: 150, 0.2 µM and 30 µM.
For `COc1ccc(-c2nc(CC(O)c3cccc(Cl)c3)nc3ccsc23)cn1` (stereo not drawn), in that order: 3.4, 9 µM and 31 µM.
The matching figures for `COc1ccc(-c2nc(CNc3cccc(Cl)c3)nc3ccsc23)cn1`: > 74, 0.672 µM and > 50 µM.
`COc1ccc(-c2nc(COc3cccc(Cl)c3)nc3ccsc23)cn1`: the selectivity ratio in data set [3] is > 130. Further, in data set [1], the EC50 turned out to be 0.384 µM. Besides, the CC50 at 120 h in data set [2] is > 50 µM.
For `COc1ccc(-c2nc(C3(S(=O)(=O)c4cccc(Cl)c4)CC3)nc3ccsc23)cn1`, in that order: > 724, 0.069 µM and > 50 µM.
The matching figures for `COc1ccc(-c2nc(C(C)S(=O)(=O)c3cccc(Cl)c3)nc3ccsc23)cn1` (stereo not drawn): > 595, 0.084 µM and > 50 µM.
For `COc1ccc(-c2nc(C(F)S(=O)(=O)c3cccc(Cl)c3)nc3ccsc23)cn1` (stereo not drawn), in that order: > 574, 0.087 µM and > 50 µM.
In the case of `COc1ccc(-c2nc(C(F)(F)S(=O)(=O)c3cccc(Cl)c3)nc3ccsc23)cn1`, the selectivity ratio in data set [3] was > 210. Further, the EC50 in data set [1] was found to be 0.237 µM. Also, the CC50 at 120 h in data set [2] was > 50 µM.
Take `COc1ccc(-c2nc(C(C)(C)S(=O)(=O)c3cccc(Cl)c3)nc3ccsc23)cn1`: the selectivity ratio in data set [3] was > 21. Also, the EC50 in data set [1] stood at 2.3 µM. In data set [2], the CC50 at 120 h was > 50 µM.
For `COc1ccc(-c2nc(CSc3cc(Cl)ccc3Cl)nc3ccsc23)cn1`, in that order: > 68, 0.728 µM and > 50 µM.
The matching figures for `COc1ccc(-c2nc(CSc3cccc(Cl)c3Cl)nc3ccsc23)cn1`: > 10, 5 µM and > 50 µM.
Consider `COc1ccc(-c2nc(CSc3cccc(C(F)(F)F)c3)nc3ccsc23)cn1`, for which the selectivity ratio in data set [3] is > 190. In addition, the half-maximal effective concentration (EC50) in data set [1] worked out at 0.262 µM. In addition, in data set [2], the CC50 at 120 h is > 50 µM.
For `COc1ccc(-c2nc(CSc3cccc(Br)c3)nc3ccsc23)cn1`, in that order: > 316, 0.158 µM and > 50 µM.
For `COc1ccc(-c2nc(CSc3ccc(F)cc3F)nc3ccsc23)cn1`, in that order: > 10, 5 µM and > 50 µM.
Regarding `COc1ccc(-c2nc(CSc3cc(C)cc(C)c3)nc3ccsc23)cn1`, the selectivity ratio in data set [3] was > 64. In data set [1], the half-maximal effective concentration (EC50) is 0.774 µM. Also, the CC50 at 120 h in data set [2] is > 50 µM.
In the case of `COc1ccc(-c2nc(CSc3ccc(C(F)(F)F)cn3)nc3ccsc23)cn1`, in data set [3], the selectivity ratio is > 2.7. For the same molecule, the EC50 in data set [1] amounted to 18 µM. In addition, the CC50 at 120 h in data set [2] was > 50 µM.
The matching figures for `COc1ccc(-c2nc(CSCc3cccc(Cl)c3)nc3ccsc23)cn1`: > 2.2, 23 µM and > 50 µM.
For the molecule `Cc1ccnc2c1NC(=O)c1cccnc1N2C1CC1` [NEVIRAPINE], in data set [3], the selectivity ratio was > 66. In addition, the CC50 at 120 h in data set [2] was > 10 µM.

A word on the EC50: it is the concentration that produces a half-maximal response. What is called CC50 is the concentration giving 50% cytotoxicity. Low readings indicate harm at low concentration, high ones better tolerance by the cells. A word on the IC50: it is the concentration that gives 50% inhibition.
